Measurements taken from patent US12439917B2, “Method for controlling phakopsora pachyrhizi having resistance against QoI fungicide” (SUMITOMO CHEMICAL COMPANY, LIMITED, priority 2020, dated 2025).

How the values were obtained:
[1] = system: soybean rust fungus strain with single amino acid substitution of F129L in the cytochrome b gene; details: F129L QoI-resistant soybean rust fungi; background art; cited from earlier work
[2] = system: soybean rust fungus (Phakopsora pachyrhizi) having an amino acid substitution of F129L on mitochondrial cytochrome b protein; assay: Comparative Test Example 1: soybean leaf disk test versus commercial QoI fungicides; assay type: in vivo; details: method of Test Example 1
Description: A soybean leaf (cv; Kurosengoku) was punched out to 1 cm diameter to prepare a leaf disk. Each 1 mL of 1.2% agar medium was dispensed in 24 well microplate. A piece of the leaf disk was placed on each well. To a mixture of 0.5 μL of Sorpol (registered trademark) 1200KX, 4.5 μL of DMSO, and 5 μL of xylene was added 20 μL of a solution containing 10,000 ppm of the test compound in DMSO. The resulting mixture was diluted with ion exchange water to prepare a spray solution containing a predetermined concentration of the test compound. The spray solution was sprayed in 10 μL per one leaf disk. After 1 day, an aqueous suspension of spores of soybean rust fungus (Phakopsora pachyrhizi) having an amino acid substitution of F129L on mitochondrial cytochrome b protein (1.0×10^5/mL) was inoculated onto the leaf disks. After the inoculation, the microplate was placed in a growth chamber (light on for 6 hours, light off for 18 hours, 23° C. temperature, 60% humidity). After 1 day, the leaf disks were air-dried to disappear water droplets on the surface of the leaf disk, and the microplate was placed again in the growth chamber for 10 to 14 days. Thereafter, a lesion area of soybean rust disease was assessed. […] Here the untreated means that the spray solution containing the test compound was not sprayed onto the leaf disk.
The test was conducted by using as a test compound the compound 1, 4 or 9 of the present invention, the present compound 7, 8, 15, 18, 23, 31 or 37, pyribencarb, azoxystrobin, dimoxystrobin, metominostrobin, Fluoxastrobin, or Kresoxim-methyl at 50 ppm according to a method described in the Test Example 1. The results are indicated in [Table A] and [Table B].

CO/C=C(/C(=O)OC)c1ccccc1Oc1cc(Oc2ccccc2C#N)ncn1 [Azoxystrobin]
efficacy against the resistant fungi [1]: reduced to the level of practical problems | Lesion area (%) at 50 ppm [2]: 100%

CO/C=C(\Oc1cc(C2CC2)ccc1C)C(=O)OC [Compound 1 of the present invention]
Lesion area (%) at 50 ppm [2]: 0%

CO/C=C(\Oc1cc(C2OCCCO2)ccc1C)C(=O)OC [Compound 4 of the present invention]
Lesion area (%) at 50 ppm [2]: 10%

CO/C=C(\Oc1cc(/N=C/N(C)c2ccccc2)ccc1C)C(=O)OC [Compound 9 of the present invention]
Lesion area (%) at 50 ppm [2]: 10%

CNC(=O)/C(=N/OC)c1ccccc1COc1cc(C)ccc1C [Dimoxystrobin]
efficacy against the resistant fungi [1]: reduced to the level of practical problems | Lesion area (%) at 50 ppm [2]: 100%

CO/N=C(/C1=NOCCO1)c1ccccc1Oc1ncnc(Oc2ccccc2Cl)c1F [Fluoxastrobin]
efficacy against the resistant fungi [1]: reduced to the level of practical problems | Lesion area (%) at 50 ppm [2]: 100%

CO/N=C(/C(=O)OC)c1ccccc1COc1ccccc1C [Kresoxim-methyl]
efficacy against the resistant fungi [1]: reduced to the level of practical problems | Lesion area (%) at 50 ppm [2]: 100%

CO/C=C(/C(=O)OC)N(C)c1cccc(Oc2ccccc2C)c1 [Present compound 7]
Lesion area (%) at 50 ppm [2]: 10%

CO/C=C(\Oc1cccc(C(=O)c2ccccc2)c1)C(=O)OC [Present compound 8]
Lesion area (%) at 50 ppm [2]: 10%

CO/C=C(\Oc1cc(Oc2ccccc2)ccc1C)C(=O)OC [Present compound 15]
Lesion area (%) at 50 ppm [2]: 0%

CO/C=C(\Oc1cc(Cc2ccccc2)ccc1C)C(=O)OC [Present compound 18]
Lesion area (%) at 50 ppm [2]: 0%

COC(=O)NCc1cc(/C(C)=N/OCc2cccc(C)n2)ccc1Cl [Pyribencarb]
efficacy against the resistant fungi [1]: reduced to the level of practical problems | Lesion area (%) at 50 ppm [2]: 100%

Metominostrobin
efficacy against the resistant fungi [1]: reduced to the level of practical problems | Lesion area (%) at 50 ppm [2]: 100%
